Results taken from US9067888B2, “Inhibitors of protein kinases” (Ingenium Pharmaceuticals GmbH, priority 2010, dated 2015).

Tests used:
[1] = system: TNF-alpha inducible reporter gene; assay: Inhibition of TNF-alpha-induced reporter gene expression (luciferase) in HeLa-derived cell line; type: cell-based, human; conditions: Homo sapiens, 6 h, remaining luciferase activity in presence of 3 μM of compound as ratio of DMSO-treated cells, TNF-alpha 50 ng/ml, read-out: Efficacy (ratio to DMSO) TNF-alpha induced response
Description: TNF-alpha responsive cell lines like the human HeLa cell line can be used to study cellular responses to TNF-alpha, e.g. transcriptional regulation of a transfected TNF-alpha responsive reporter gene, and effects of kinase inhibitors on this response.
In order to analyse compound effects on TNF-alpha mediated transcriptional response, a HeLa-derived cell line stably transfected with a TNF-alpha inducible reporter gene was used (Panomics Catalog No. RC0013). The cell line was obtained by co-transfection of a luciferase reporter gene (Panomics P/N LR0051) and pHyg into human cervical epithelial HeLa cells, followed by hygromycin selection. TNFα-induced luciferase activity was used to select clones from the hygromycin-resistant cells. The cell line was maintained and stimulated according to the manufacturer's instructions. Briefly, cells were seeded at 5×10^5/well in 1 ml of growth medium in a 12-well plate and incubated in a humidified incubator at 37° C. and 5% CO2 for 24 hours. Medium was replaced with 1 ml of serum free medium and compounds were added up to concentrations of […]. After 1 hour of incubation, TNF-alpha was added to achieve a final concentration of 50 ng/ml. The culture dish was further incubated in a humidified incubator at 37° C. and 5% CO2 for 6 hours, medium was removed and 100 μL of lysis buffer were added to each well and the assay for luciferase activity was performed according to assay manufacturer's (Promega P/N E1500) recommendations. For more information about this cell line, go to worldwide website www(dot)panomics.com.
Compound effects on TNF-alpha-induced reporter gene expression is shown in column 6 in Table 1 given below. Indicated is the remaining luciferase activity after incubation in presence of 3 μM of compound as a ratio of the activity of DMSO-treated cells without compound. Specifically, it was intended to distinguish cell permeable compounds from other compounds having significant inhibitory potency with regard to other CDKs, but fail to penetrate cells or are unstable under the conditions of the experiment.

CDK9 = CDK9 (Homo sapiens (Human), UniProt P50750); assay: In vitro kinase inhibition, KinaseProfiler service of Millipore, residual activity; type: biochemical
Description: (§1) In vitro kinase assay analysis may be performed using standard techniques described in the art. These techniques are also used by commercial services providers in order to offer in vitro kinase activity assay services, e.g. the assays offered by Millipore Inc. (worldwide website www(dot)millipore.com), ProQinase GmbH (worldwide website www(dot)proqinase.de) and others.
In vitro kinase inhibition results shown in columns 7 to 9 in Table 1 were obtained by employing the KinaseProfiler™ service of Millipore and used to select compounds displaying specificity for CDK9. Specifically, it was intended to distinguish the CDK9-specific compounds from other compounds having significant inhibitory potency also with regard to other CDKs.

CDK6/CycD3 = CDK6/CycD3 (Homo sapiens (Human), UniProt Q00534); assay: Kinase activity assay IC50 profile; type: biochemical; conditions: read-out: IC50 CDK6/D3
GSK3-beta = GSK3-beta (Homo sapiens (Human), UniProt P49841); assay: Kinase activity assay IC50 profile; type: biochemical; conditions: read-out: IC50 GSK3b
Procedure: as §1
(§2) On the day of the kinase inhibition assay, 451 μl H2O were added to each well of a set of compound dilution plates. To minimize precipitation, the H2O was added to the plates only a few minutes before the transfer of the compound solutions into the assay plates. The plates were shaken thoroughly, resulting in “compound dilution plates/10%/DMSO” with a concentration of 1×10^−03 M/10% DMSO to 3×10^−08 M/10% DMSO in semilog steps. These plates were used for the transfer of 5 μl compound solution into the “assay plates”. The compound dilution plates were discarded at the end of the working day. For the assays (see below), 5 μl solution from each well of the compound dilution plates were transferred into the assay plates. The final volume of the assay was 50 μl. All compounds were tested at 10 final assay concentrations in the range from 1×10^−04 M to 3×10^−09 M. The final DMSO concentration in the reaction mixtures was 1% in all cases.
(§3) All kinase assays were performed in 96-well FlashPlates™ from Perkin Elmer/NEN (Boston, Mass., USA) in a 50 μl reaction volume. The reaction mixture was pipetted in four steps in the following order: • 20 μl of assay buffer (standard buffer) • 5 μl of ATP solution (in H2O) • 5 μl of test compound (in 10% DMSO) • 10 μl of substrate/10 μl of enzyme solution (premixed)
(§4) The assay for all enzymes contained 60 mM HEPES-NaOH (pH 7.5), 3 mM MgCl2, 3 mM MnCl2, 3 μM Na-Orthovanadate, 1.2 mM DTT, 50 μg/ml PEG2000, 1 μM [^33P]-ATP (approx. 5 ×1005 cpm per well).
(§5) Reaction mixtures were incubated at 30° C. for 80 min. The reaction was stopped with 50 μl of 2% (v/v) H3PO4, plates were aspirated and washed two times with 200 μl H2O or 200 μl 0.9% (w/v) NaCl. Incorporation of ^33P was determined with a microplate scintillation counter (Microbeta, Wallac).
(§6) The median value of the counts in column 1 (n=8) of each assay plate was defined as “low control”. This value reflects unspecific binding of radioactivity to the plate in the absence of a protein kinase but in the presence of the substrate. […] The residual activity (in %) for each well of a particular plate was calculated by using the following formula: Res. Activity(%)=100×[(cpm of compound−low control)/(high control−low control)]
(§7) The residual activities for each concentration and the compound IC50 values were calculated using Quattro Workflow V2.0.1.3 (Quattro Research GmbH, Munich, Germany; worldwide website www(dot)quattro-research.com). […]

CDK7/CycH/MAT1 = CDK7/CycH/MAT1 (Homo sapiens (Human), UniProt P50613); assay: Kinase activity assay IC50 profile; type: biochemical; conditions: read-out: IC50 CDK7/H/MAT1
Procedure: as §1, §2, §3, §4, §5, §6, §7

IRAK1 = IRAK1 (Homo sapiens (Human), UniProt P51617); assay: Kinase activity assay IC50 profile; type: biochemical
Procedure: as §1, §2, §3, §4, §5, §6, §7

GSK3-alpha = GSK3-alpha (Homo sapiens (Human), UniProt P49840); assay: Kinase activity assay IC50 profile; type: biochemical; conditions: read-out: IC50 GSK3a
Procedure: as §1, §2, §3, §4, §5, §6, §7

CDK3/CycE = CDK3/CycE (Homo sapiens (Human), UniProt Q00526); assay: Kinase activity assay IC50 profile; type: biochemical; conditions: read-out: IC50 CDK3/E
Procedure: as §1
(§8) On the day of the kinase inhibition assay, 451 μl H2O were added to each well of a set of compound dilution plates. To minimize precipitation, the H2O was added to the plates only a few minutes before the transfer of the compound solutions into the assay plates. The plates were shaken thoroughly, resulting in “compound dilution plates/10%/DMSO” with a concentration of 1×10^−03 M/10% DMSO to 3×10^−08 M/10% DMSO in semilog steps. These plates were used for the transfer of 5 μl compound solution into the “assay plates”. The compound dilution plates were discarded at the end of the working day. For the assays (see below), 5 μl solution from each well of the compound dilution plates were transferred into the assay plates. The final volume of the assay was 50 μl. […]
(§9) The median value of the counts in column 1 (n=8) of each assay plate was defined as “low control”. This value reflects unspecific binding of radioactivity to the plate in the absence of a protein kinase but in the presence of the substrate. […]

CDK1/CycB = CDK1/CycB (Homo sapiens (Human), UniProt P06493); assay: Kinase activity assay IC50 profile; type: biochemical; conditions: read-out: IC50 CDK1/B
Procedure: as §1, §8, §9

CDK2/CycA = CDK2/CycA (Homo sapiens (Human), UniProt P24941); assay: Kinase activity assay IC50 profile; type: biochemical
Procedure: as §1, §8, §9

CDK5/p35NCK = CDK5/p35NCK (Homo sapiens (Human), UniProt Q00535); assay: Kinase activity assay IC50 profile; type: biochemical; conditions: read-out: IC50 CDK5/p35
Procedure: as §1, §8, §9

CDK9, sequence (P50750 whole entry): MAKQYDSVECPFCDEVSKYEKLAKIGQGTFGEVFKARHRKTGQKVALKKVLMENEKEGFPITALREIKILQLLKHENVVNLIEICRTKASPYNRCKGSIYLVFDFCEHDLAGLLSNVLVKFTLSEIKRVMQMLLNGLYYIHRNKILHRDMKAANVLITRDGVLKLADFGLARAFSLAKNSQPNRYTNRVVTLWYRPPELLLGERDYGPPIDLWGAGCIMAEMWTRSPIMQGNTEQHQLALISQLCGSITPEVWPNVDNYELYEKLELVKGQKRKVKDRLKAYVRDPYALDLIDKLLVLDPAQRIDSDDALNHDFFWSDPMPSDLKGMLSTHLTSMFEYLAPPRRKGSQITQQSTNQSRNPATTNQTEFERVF
CDK9, sequence (O60563 whole entry partner): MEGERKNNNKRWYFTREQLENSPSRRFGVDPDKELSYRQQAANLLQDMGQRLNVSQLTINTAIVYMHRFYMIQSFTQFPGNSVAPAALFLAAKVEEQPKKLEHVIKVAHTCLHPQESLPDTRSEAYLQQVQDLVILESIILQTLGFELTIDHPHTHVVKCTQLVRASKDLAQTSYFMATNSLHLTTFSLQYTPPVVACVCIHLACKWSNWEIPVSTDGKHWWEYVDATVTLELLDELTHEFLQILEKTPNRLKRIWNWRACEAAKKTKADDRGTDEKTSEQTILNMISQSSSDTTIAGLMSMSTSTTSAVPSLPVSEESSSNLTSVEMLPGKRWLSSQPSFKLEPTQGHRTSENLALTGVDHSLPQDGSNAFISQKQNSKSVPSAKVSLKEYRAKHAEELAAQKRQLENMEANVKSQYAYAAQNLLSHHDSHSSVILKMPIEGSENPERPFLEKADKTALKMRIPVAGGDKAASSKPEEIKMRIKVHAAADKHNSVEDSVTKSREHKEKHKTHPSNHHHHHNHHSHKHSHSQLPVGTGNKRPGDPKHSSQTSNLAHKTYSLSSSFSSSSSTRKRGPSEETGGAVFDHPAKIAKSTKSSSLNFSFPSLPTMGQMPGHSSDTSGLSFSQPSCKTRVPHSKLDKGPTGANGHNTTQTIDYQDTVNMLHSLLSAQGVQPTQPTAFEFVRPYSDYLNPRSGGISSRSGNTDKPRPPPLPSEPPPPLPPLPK
CDK6/CycD3, sequence (Q00534 whole entry): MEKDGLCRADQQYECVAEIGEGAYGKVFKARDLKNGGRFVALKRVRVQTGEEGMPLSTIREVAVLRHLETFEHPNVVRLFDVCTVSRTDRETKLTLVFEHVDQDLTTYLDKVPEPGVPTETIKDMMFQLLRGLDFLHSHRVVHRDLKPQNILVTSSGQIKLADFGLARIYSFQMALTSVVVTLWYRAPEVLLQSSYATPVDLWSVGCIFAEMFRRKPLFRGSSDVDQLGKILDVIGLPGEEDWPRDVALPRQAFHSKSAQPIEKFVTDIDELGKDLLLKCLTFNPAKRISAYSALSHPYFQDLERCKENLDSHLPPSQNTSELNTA
CDK6/CycD3, sequence (P30281 whole entry partner): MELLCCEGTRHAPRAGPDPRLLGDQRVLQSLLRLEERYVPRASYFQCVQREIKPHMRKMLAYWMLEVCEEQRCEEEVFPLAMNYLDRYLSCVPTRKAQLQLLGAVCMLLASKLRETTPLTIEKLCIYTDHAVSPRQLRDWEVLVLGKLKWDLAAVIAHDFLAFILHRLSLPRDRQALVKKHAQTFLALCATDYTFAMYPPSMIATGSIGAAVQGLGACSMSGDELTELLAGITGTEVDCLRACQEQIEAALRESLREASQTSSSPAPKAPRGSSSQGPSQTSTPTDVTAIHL
CDK3/CycE, sequence (Q00526 whole entry): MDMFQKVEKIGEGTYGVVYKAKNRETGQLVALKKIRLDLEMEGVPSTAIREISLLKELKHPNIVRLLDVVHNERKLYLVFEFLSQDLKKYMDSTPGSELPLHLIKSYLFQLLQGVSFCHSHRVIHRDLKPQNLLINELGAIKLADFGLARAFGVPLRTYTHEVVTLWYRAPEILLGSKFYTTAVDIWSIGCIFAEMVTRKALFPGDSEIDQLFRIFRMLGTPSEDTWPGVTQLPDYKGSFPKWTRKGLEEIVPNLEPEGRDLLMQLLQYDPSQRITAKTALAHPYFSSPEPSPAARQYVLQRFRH
CDK3/CycE, sequence (P24864 whole entry partner): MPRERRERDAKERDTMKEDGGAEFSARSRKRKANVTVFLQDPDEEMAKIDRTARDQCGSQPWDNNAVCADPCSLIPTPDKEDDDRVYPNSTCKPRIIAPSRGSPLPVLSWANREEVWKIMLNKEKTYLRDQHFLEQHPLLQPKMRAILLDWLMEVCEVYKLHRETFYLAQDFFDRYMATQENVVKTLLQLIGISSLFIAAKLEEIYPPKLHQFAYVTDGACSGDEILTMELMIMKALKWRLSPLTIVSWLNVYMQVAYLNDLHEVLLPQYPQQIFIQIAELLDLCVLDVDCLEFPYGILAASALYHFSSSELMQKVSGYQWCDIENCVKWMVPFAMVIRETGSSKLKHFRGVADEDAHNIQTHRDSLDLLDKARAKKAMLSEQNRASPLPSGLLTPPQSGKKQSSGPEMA
IRAK1, sequence (P51617 whole entry): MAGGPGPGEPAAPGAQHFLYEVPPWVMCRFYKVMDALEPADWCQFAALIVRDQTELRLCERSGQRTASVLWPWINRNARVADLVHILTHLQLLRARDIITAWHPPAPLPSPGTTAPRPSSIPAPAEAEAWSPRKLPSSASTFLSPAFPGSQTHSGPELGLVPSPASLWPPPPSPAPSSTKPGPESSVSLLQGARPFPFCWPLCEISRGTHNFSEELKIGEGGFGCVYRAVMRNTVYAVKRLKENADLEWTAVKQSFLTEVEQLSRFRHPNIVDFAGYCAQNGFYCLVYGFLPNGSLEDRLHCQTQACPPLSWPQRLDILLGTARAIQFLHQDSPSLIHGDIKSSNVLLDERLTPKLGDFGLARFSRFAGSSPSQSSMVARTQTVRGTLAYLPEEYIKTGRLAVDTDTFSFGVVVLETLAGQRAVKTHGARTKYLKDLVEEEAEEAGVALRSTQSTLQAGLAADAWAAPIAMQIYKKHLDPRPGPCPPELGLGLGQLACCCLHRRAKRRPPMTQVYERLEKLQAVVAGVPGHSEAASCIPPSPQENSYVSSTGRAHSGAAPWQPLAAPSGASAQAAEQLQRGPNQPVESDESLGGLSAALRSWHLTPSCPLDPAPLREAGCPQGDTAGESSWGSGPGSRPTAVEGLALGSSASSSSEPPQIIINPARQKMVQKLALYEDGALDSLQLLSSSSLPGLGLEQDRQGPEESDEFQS
GSK3-beta, sequence (P49841 whole entry): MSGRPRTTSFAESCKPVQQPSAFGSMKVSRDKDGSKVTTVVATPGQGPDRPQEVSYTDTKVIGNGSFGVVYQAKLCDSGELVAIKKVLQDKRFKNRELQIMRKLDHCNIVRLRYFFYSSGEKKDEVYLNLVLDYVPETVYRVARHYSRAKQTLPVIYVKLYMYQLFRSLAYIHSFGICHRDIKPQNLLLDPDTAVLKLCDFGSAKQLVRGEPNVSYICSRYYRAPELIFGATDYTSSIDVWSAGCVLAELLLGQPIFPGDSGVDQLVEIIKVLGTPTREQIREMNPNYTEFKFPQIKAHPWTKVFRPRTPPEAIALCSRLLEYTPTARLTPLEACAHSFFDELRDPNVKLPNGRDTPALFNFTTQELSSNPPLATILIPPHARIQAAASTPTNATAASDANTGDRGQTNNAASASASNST
CDK1/CycB, sequence (P06493 whole entry): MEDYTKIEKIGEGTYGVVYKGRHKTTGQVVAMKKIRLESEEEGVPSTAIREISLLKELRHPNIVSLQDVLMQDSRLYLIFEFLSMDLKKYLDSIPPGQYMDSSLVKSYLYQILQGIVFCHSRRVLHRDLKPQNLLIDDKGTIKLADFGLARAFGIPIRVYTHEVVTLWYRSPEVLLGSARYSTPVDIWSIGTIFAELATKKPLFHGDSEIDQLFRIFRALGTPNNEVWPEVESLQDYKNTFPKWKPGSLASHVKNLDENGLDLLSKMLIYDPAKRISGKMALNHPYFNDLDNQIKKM
CDK1/CycB, sequence (P14635 whole entry partner): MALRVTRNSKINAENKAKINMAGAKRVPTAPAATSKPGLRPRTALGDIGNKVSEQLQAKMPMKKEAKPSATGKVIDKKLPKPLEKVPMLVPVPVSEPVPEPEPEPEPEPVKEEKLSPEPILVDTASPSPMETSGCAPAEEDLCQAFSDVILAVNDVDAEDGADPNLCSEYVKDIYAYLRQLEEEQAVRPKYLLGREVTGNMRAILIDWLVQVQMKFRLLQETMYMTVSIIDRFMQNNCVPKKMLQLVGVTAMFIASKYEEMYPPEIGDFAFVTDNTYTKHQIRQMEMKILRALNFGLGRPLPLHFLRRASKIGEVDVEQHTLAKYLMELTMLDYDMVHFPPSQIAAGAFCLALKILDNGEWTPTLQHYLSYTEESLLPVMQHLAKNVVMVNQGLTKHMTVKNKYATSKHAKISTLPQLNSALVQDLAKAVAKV
CDK5/p35NCK, sequence (Q00535 whole entry): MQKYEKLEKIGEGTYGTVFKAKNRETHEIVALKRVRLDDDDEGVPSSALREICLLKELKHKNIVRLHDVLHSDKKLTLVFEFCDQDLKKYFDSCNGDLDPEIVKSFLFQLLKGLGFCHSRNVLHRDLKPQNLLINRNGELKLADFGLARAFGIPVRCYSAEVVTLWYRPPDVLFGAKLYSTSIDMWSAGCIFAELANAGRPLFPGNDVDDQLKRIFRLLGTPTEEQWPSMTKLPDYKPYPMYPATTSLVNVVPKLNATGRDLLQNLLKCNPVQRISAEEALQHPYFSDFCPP
CDK5/p35NCK, sequence (Q15078 whole entry partner): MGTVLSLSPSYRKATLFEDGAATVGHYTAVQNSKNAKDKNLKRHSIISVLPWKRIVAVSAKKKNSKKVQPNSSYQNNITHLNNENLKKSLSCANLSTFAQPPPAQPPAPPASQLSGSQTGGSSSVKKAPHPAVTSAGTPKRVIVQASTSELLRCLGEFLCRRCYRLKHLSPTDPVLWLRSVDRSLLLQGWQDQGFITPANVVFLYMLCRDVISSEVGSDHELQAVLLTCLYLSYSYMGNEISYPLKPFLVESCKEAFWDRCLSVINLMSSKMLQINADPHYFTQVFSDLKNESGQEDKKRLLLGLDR

remaining activity at 0.01 µM (CDK9; residual activity at 10 nM compound, read-out: CDK9 10 nM (RA in %)): 29%
remaining activity at 0.1 µM (CDK9; residual activity at 100 nM compound, read-out: CDK9 100 nM (RA in %)): 3%
IC50 (CDK6/CycD3): > 5 µM
IC50 (GSK3-beta): 0.903 µM
IC50 (CDK7/CycH/MAT1): > 5 µM
IC50 (IRAK1): > 5 µM
IC50 (GSK3-alpha): 0.16 µM
IC50 (CDK3/CycE): 0.219 µM
IC50 (CDK1/CycB): 0.094 µM
IC50 (CDK2/CycA): 0.168 µM
IC50 (CDK5/p35NCK): 1.08 µM
SMILES: COc1cc(F)ccc1-c1ccnc(NC(=O)[C@H]2CCC[C@@H](NC(C)=O)C2)c1 (relative stereo) [Example 33, cis-3-Acetamido-N-(4-(4-fluoro-2-methoxyphenyl)pyridin-2-yl)cyclo-hexanecarboxamide]
activity at 3 µM [1]: 3%
